This is an account of results in patent publication US20260365670A1, “EGFR INHIBITORS AND USES THEREOF” (DIZAL (JIANGSU) PHARMACEUTICAL CO., LTD., priority 2022, published 2026).

Where two headings read alike, the source gives them in different places.

Assay [1] addresses T1, EGFR (d746-750 C797S) (Homo sapiens, UniProt P00533, C797S/DEL746-750).
T1 construct: purchased signalchem
The experiment in a line: Inhibition of EGFR (d746-750 C797S) biochemical enzymatic activity (HTRF). The conditions noted are these: EGFR (d746-750 C797S), 1 mM ATP, 1 h at room temperature, read-out: IC50 @Del19-C797S. The essentials:
(§1)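 Kinase activity is measured by HTRF detection of biotinylated TK substrate (1 μM) phosphorylation at 1 mM ATP. Incubation lasts 1 h at room temperature before an EDTA stop, and IC50 is fitted with a four-parameter logistic model.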

The test system of assay [2] is PC-9. Description: Cell proliferation assay, PC-9 cells (CellTiter-Glo, 72 hours). The format is cell-based. The note with it: PC9 cells, read-out: GI50 PC9. The essentials: (§2)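 Luminescent viable-cell counts were taken on a day 0 plate at dosing and again at endpoint. Proliferation was calculated as (sample − G0)/(DMSO − G0). Seeding was 5000 Ba/F3 or 500 PC-9 cells per well in RPMI1640, followed by overnight attachment and serial compound dilutions. The GI50 was fitted.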

Assay [3] concerns the target T2, EGFR (C797S L858R) (Homo sapiens, UniProt P00533, C797S/L858R).
T2 construct: purchased signalchem
Description: Inhibition of EGFR (C797S L858R) biochemical enzymatic activity (HTRF). The conditions noted are these: EGFR (C797S L858R), 1 mM ATP, 1 h at room temperature, read-out: IC50 @L858-C797S. The method in brief: as §1

Assay [4] addresses T3, EGFR L858R/T790M (Homo sapiens, UniProt P00533, L858R/T790M).
T3 construct: purchased Carna Bio
The experiment in a line: Inhibition of EGFR L858R/T790M biochemical enzymatic activity (HTRF). The conditions noted are these: EGFR L858R/T790M, 1 mM ATP, 1 h at room temperature, read-out: IC50 @L858R-T790M. The essentials: as §1

The test system of assay [5] is A-431. Description: Cell proliferation assay, A-431 cells (GI50, Table 6). Format: cell-based. The conditions noted are these: Homo sapiens, A-431, A-431 cells.
For assay [6], the target named is T4, EGFR[T790M/C797S/L858R] (Homo sapiens, UniProt P00533, C797S/L858R/T790M).
T4 construct: purchased Carna Bio
The experiment in a line: Inhibition of EGFR[T790M/C797S/L858R] biochemical enzymatic activity (HTRF). The note with it: EGFR[T790M/C797S/L858R], 1 mM ATP, 1 h at room temperature, read-out: IC50 @T790M- C797S - L858R. The essentials: as §1

Assay [7] has as its target T5, EGFR Exon19Del (Homo sapiens, UniProt P00533, DEL746-750).
T5 construct: purchased Carna Bio
Description: Inhibition of EGFR Exon19Del biochemical enzymatic activity (HTRF). The conditions noted are these: EGFR Exon19Del, 1 mM ATP, 1 h at room temperature, read-out: IC50 @Del19. The method in brief:
as §1

Assay [8] concerns the target T6, EGFR Exon19Del/T790M (Homo sapiens, UniProt P00533, DEL746-750/T790M).
T6 construct: purchased Carna Bio
The experiment in a line: Inhibition of EGFR Exon19Del/T790M biochemical enzymatic activity (HTRF). The note with it: EGFR Exon19Del/T790M, 1 mM ATP, 1 h at room temperature, read-out: IC50 @Del19-T790M. The essentials:
as §1

The subject of assay [9] is Ba/F3 cells expressing EGFR mutations. Description: Cell proliferation assay, Ba/F3 cells expressing EGFR mutations (CellTiter-Glo, 72 hours). Format: cell-based. The method in brief:
as §2

For assay [10], the target named is T7, EGFR wild type (Homo sapiens, UniProt P00533).
T7 construct: purchased Carna Bio
The experiment in a line: Inhibition of EGFR wild type biochemical enzymatic activity (HTRF). The conditions noted are these: EGFR wild type, 1 mM ATP, 1 h at room temperature, read-out: IC50 @WT. The method in brief:
as §1

Assay [11] concerns the target T8, EGFR[T790M/C797S/d746-750] (Homo sapiens, UniProt P00533, C797S/DEL746-750/T790M).
T8 construct: purchased Carna Bio
The experiment in a line: Inhibition of EGFR[T790M/C797S/d746-750] biochemical enzymatic activity (HTRF). The conditions noted are these: EGFR[T790M/C797S/d746-750], 1 mM ATP, 1 h at room temperature, read-out: IC50 @T790M - C797S - Del19. The method in brief:
as §1

The target of assay [12] is T9, EGFR L858R (Homo sapiens, UniProt P00533, L858R).
T9 construct: purchased Carna Bio
The experiment in a line: Inhibition of EGFR L858R biochemical enzymatic activity (HTRF). The note with it: 1 mM ATP, 1 h at room temperature, read-out: IC50 @L858R. The essentials:
as §1

T7 sequence (P00533 25-1210): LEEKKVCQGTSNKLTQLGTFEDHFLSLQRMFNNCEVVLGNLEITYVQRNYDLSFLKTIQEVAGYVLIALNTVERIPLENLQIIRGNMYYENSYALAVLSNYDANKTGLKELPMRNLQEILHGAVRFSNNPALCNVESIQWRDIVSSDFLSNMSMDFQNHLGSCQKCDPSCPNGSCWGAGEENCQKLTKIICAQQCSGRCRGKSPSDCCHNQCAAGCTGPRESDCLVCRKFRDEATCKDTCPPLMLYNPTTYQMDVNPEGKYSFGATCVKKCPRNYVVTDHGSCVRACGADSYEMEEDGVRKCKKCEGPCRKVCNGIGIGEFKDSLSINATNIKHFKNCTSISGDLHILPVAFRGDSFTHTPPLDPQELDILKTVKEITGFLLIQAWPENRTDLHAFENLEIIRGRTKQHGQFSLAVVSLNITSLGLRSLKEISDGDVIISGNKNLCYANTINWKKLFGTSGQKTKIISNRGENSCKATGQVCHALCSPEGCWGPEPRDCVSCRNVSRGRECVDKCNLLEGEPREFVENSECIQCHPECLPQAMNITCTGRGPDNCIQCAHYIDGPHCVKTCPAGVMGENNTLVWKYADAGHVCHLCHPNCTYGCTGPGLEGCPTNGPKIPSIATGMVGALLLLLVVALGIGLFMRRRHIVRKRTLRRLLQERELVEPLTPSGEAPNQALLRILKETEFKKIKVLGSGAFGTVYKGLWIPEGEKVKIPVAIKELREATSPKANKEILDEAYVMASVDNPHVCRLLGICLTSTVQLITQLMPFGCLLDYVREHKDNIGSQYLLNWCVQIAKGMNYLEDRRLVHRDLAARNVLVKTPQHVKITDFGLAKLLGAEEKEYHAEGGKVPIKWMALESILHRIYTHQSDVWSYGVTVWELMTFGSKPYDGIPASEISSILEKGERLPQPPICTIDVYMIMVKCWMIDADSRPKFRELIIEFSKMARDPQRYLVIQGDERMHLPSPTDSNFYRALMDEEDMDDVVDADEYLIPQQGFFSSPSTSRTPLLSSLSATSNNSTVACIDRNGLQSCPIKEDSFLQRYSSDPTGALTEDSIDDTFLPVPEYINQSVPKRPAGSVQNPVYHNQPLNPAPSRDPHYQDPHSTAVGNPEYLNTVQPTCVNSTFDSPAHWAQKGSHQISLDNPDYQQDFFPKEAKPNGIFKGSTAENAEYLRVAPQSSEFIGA
T8 sequence (P00533 with tags, fused parts or gaps DEL746-750/T790M/C797S limits assumed): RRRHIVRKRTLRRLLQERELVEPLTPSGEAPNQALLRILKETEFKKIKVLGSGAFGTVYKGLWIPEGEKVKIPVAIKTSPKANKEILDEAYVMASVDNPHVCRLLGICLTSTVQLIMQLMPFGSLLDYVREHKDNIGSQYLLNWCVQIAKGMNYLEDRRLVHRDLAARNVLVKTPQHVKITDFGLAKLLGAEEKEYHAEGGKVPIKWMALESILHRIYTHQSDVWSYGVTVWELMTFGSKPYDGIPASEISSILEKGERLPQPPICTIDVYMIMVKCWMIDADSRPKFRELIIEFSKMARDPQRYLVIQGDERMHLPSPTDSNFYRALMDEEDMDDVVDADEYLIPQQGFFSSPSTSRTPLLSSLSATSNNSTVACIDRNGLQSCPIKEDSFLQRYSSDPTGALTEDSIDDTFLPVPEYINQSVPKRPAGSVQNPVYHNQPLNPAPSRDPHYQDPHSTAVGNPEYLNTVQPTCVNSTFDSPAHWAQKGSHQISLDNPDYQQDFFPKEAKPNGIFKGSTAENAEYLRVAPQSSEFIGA
T1 sequence (P00533 with tags, fused parts or gaps DEL746-750/C797S limits assumed): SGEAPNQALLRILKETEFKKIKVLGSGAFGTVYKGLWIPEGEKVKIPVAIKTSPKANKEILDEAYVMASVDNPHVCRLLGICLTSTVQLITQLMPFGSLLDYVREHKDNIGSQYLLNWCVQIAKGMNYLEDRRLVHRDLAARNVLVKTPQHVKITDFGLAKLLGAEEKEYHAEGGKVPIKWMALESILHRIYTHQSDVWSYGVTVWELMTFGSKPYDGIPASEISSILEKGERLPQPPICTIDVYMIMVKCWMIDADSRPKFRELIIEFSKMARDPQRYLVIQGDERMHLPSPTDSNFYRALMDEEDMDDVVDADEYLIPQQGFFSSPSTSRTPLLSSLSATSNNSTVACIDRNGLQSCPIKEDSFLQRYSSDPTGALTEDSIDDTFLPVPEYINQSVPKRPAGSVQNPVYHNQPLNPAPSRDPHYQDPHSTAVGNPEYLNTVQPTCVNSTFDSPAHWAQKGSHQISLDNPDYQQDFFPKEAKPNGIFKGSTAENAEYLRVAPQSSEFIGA
T3 sequence (P00533 25-1210 T790M/L858R): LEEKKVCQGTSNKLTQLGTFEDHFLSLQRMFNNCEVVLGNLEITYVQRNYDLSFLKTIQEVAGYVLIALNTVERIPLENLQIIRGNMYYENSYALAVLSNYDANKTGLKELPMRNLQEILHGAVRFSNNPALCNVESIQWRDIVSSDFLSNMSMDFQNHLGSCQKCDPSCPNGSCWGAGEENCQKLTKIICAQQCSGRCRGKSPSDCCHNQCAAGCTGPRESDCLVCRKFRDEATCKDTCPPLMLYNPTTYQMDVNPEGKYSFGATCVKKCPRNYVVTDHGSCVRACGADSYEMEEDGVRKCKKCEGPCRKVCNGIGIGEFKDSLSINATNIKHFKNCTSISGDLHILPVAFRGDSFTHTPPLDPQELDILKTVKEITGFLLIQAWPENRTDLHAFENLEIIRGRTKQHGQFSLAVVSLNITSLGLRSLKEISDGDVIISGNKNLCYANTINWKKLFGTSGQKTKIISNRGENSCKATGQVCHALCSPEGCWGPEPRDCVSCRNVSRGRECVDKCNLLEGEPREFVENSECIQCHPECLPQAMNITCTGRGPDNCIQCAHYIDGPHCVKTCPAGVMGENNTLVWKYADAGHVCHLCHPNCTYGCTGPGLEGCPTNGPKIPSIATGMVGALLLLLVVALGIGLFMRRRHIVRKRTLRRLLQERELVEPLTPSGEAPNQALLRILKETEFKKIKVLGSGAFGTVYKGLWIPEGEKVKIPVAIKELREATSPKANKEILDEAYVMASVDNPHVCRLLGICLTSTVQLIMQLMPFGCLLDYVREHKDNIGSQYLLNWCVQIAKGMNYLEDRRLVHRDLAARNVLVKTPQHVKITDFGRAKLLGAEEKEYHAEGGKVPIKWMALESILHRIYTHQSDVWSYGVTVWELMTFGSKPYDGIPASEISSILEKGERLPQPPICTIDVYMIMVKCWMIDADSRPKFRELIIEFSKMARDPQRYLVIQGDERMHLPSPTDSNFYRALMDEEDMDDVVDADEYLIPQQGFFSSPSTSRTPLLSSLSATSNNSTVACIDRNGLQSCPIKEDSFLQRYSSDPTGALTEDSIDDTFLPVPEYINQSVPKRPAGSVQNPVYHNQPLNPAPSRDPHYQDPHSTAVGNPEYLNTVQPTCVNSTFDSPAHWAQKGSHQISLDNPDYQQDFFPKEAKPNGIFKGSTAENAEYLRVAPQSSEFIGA
T4 sequence (P00533 25-1210 T790M/C797S/L858R): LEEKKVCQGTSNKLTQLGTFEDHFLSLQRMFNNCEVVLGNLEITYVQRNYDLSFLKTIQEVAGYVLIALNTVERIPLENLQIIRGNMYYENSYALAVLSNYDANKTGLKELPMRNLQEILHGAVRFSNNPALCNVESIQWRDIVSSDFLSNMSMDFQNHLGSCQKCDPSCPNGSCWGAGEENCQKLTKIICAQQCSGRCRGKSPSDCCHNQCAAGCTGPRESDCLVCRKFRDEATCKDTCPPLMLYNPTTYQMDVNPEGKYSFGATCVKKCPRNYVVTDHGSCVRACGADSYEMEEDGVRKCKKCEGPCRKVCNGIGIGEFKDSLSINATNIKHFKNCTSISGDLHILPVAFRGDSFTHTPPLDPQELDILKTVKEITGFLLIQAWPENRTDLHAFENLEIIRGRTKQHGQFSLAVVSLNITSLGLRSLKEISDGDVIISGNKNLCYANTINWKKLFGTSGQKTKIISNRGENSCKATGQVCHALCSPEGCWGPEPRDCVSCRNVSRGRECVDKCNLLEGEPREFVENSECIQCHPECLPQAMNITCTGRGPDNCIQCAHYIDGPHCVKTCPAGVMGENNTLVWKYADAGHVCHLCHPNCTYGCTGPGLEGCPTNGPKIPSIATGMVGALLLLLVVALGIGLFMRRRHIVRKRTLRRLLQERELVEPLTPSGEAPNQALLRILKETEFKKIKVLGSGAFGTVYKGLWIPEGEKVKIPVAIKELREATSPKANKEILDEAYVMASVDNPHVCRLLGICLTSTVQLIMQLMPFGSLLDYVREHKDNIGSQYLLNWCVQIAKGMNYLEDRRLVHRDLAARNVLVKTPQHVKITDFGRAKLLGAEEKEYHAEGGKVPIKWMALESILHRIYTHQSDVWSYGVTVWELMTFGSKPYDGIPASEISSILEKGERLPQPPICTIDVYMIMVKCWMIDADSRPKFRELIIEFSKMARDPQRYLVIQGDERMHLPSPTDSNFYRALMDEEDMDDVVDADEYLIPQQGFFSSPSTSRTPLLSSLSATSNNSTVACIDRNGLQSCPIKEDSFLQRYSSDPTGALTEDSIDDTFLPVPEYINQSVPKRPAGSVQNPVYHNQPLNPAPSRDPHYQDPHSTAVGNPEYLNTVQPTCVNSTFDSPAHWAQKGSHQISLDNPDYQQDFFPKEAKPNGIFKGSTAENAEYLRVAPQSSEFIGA

`Cc1cc2cc(n1)-c1cnn(C)c1OCCN1CC3CCC(C3)(C1)n1c(nc3ccc(N4CCC(N5CCOCC5)C4)cc31)NC2=O` (single isomer, unassigned) [Example B44B1]: the IC50 in assay [1] came out at 12 nM; in assay [3] it was 66 nM; in [4], 19 nM; in assay [6] it was 6.4 nM; in assay [7], 34 nM; in assay [8] it was 12 nM. For the same compound, the IC50 was greater than 5 µM in assay [10], 8.8 nM in [11] and 337 nM in assay [12]. The GI50 in assay [2] is 22 nM; in assay [5] it was 3690 nM; in assay [9] (BaF3 cells, EGFR DEL19 - C797S, read-out: GI50 DEL19 - C797S/BaF3) it was 2 nM; in [9] (BaF3 cells, EGFR DEL19 - T790-C797S, read-out: GI50 DEL19 - T790-C797S/BaF3) it was 2 nM; in assay [9] (BaF3 cells, EGFR L858R - C797S, read-out: GI50 L858R - C797S/BaF3) it was 6 nM; in [9] (BaF3 cells, EGFR L858R - T790-C797S, read-out: GI50 L858R - T790-C797S/BaF3) it was 2 nM. Further, the GI50 came to 2 nM in [9] (BaF3 cells, EGFR L858R - T790M, read-out: GI50 L858R - T790M/BaF3); 24 nM in [9] (BaF3 cells, EGFR L858R, read-out: GI50 L858R/BaF3); 7 nM in assay [9] (EGFR DEL19 - T790M, read-out: GI50 DEL19 - T790M).
On to `Cc1cc2cc(n1)-c1cnn(C)c1OCCC[C@@H](C)Cn1c(nc3ccc4c(c31)CCN(CCN(C)C)C4)NC2=O` [Example B12, (11R)-18-[2-(dimethylamino)ethyl]-5,11,30-trimethyl-7-oxa-4,5,13,18,24,26,31-heptaazahexacyclo[26.3.1.0^{2,6}.0^{13,25}.0^{14,23}.0^{15,20}]dotriaconta-1(31),2(6),3,14,20,22,24,28(32),29-nonaen-27-one], for which the IC50 in [1] stood at 2.3 nM; in [3], 11 nM; in assay [4], 3.9 nM; in [6], 3 nM; in assay [7], 3.7 nM; in assay [8], 2.5 nM. Moreover, the IC50 in assay [10] is greater than 5 µM; in [11], 2.6 nM; in assay [12], 44 nM. For the same compound, the GI50 in [2] (Homo sapiens, PC-9, 72 h) was determined as 12 nM; in assay [5], 1080 nM; in [9] (Mus musculus, BaF3, 72 h, BaF3 cells, EGFR DEL19 - C797S, read-out: GI50 DEL19 - C797S/BaF3), 1.4 nM; in assay [9] (Mus musculus, BaF3, 72 h, BaF3 cells, EGFR DEL19 - T790-C797S, read-out: GI50 DEL19 - T790-C797S/BaF3), 0.56 nM; in [9] (Mus musculus, BaF3, 72 h, BaF3 cells, EGFR L858R - C797S, read-out: GI50 L858R - C797S/BaF3), 5.6 nM; in assay [9] (Mus musculus, BaF3, 72 h, BaF3 cells, EGFR L858R - T790-C797S, read-out: GI50 L858R - T790-C797S/BaF3) it was 0.38 nM. For the same compound, the GI50 in assay [9] (Mus musculus, BaF3, 72 h, BaF3 cells, EGFR L858R - T790M, read-out: GI50 L858R - T790M/BaF3) amounted to 1 nM; in [9] (Mus musculus, BaF3, 72 h, BaF3 cells, EGFR L858R, read-out: GI50 L858R/BaF3) it was 4 nM; in [9] (Mus musculus, BaF3, 72 h, EGFR DEL19 - T790M, read-out: GI50 DEL19 - T790M), 0.79 nM.
